Earlier results as cited in patent US20160279133A1 (Farmalider, S.A., priority 2015, published 2016).
Where a name gives a salt, the structure may show the parent alone.

Columns and labels:
male sexual dysfunction = conditions: administered orally

Row | solubility in water | Compound | efficacy in the treatment of male sexual dysfunction (male sexual dysfunction)
1 |  | CCCc1nn(C)c2c(=O)[nH]c(-c3cc(S(=O)(=O)N4CCN(C)CC4)ccc3OCC)nc12 [Sildenafil, 5-[2-ethoxy-5-(4-methylpiperazin-1-yl-sulfonyl)phenyl]-1-methyl-3-n-propyl-1,6-dihydro-7H-pyrazolo[4,3-d]pyrimidin-7-one] | effective treatment
2 | relatively insoluble | CCCc1nn(C)c2c(=O)[nH]c(-c3cc(S(=O)(=O)N4CCN(C)CC4)ccc3OCC)nc12 [Sildenafil citrate] | 
